# Measured values published in patent US20240090503A1, “FUNGICIDAL OXADIAZOLES AND THEIR MIXTURES” (FMC CORPORATION, priority 2020, published 2024).
# Columns and labels:
# [1] = test system: Phakopsora pachyrhizi (the causal agent of Asian soybean rust); assay: Test A: preventive spray on soybean seedlings, Asian soybean rust, visual disease rating; assay type: in vivo; conditions: soybean seedlings
# Excerpt: (§1) General protocol for preparing test suspensions for Tests A-D: the test compounds were first dissolved in acetone in an amount equal to 3% of the final volume and then suspended at the desired concentration (in ppm) in acetone and purified water (50/50 mix by volume) containing 250 ppm of the surfactant PEG400 (polyhydric alcohol esters). The resulting test suspensions were then used in Tests A-D.
# (§2) The test suspension was sprayed to the point of run-off on soybean seedlings. The following day the seedlings were inoculated with a spore suspension of Phakopsora pachyrhizi (the causal agent of Asian soybean rust) and incubated in a saturated atmosphere at 22° C. for 24 h and then moved to a growth chamber at 22° C. for 8 days, after which time visual disease ratings were made.
# (§3) The test results for Tests A-C presented in Table A below for compounds of Formula 1 illustrate the fungicidal activity of component (a) contributing to the plant disease control utility of compositions comprising component (a) in combination with component (b) according to the present invention. In the Table, a rating of 100 indicates 100% disease control and a rating of 0 indicates no disease control (relative to the controls). A dash (-) indicates the compound was not tested. The test suspensions were sprayed at the concentration listed in the column “Rate in ppm”, unless otherwise indicated. An asterisk “*” next to the rating indicates a 250 ppm test suspension was used, a double asterisk “**” next to the rating indicates a 100 ppm test suspension was used, and a triple asterisk “***” next to the rating indicates a 50 ppm test suspension was used.
# [2] = test system: Puccinia recondita f. sp. tritici (the causal agent of wheat leaf rust); assay: Test C: preventive spray on wheat seedlings, wheat leaf rust, visual disease rating; assay type: in vivo; conditions: wheat seedlings
# Excerpt: as §1
# as §2, with “on wheat” for “on soybean”, “of Puccinia recondita f. sp. tritici;” for “of Phakopsora pachyrhizi”, “of wheat leaf” for “of Asian soybean”, “at 20°” for “at 22°”, “24 h,” for “24 h”, “for 6” for “for 8”
# as §3
# [3] = test suspension 10 ppm, 100 = 100% disease control, 0 = no control
# [4] = 10 ppm test suspension, 100 = 100% disease control, 0 = no control
# [5] = 50 ppm test suspension, 100 = 100% disease control, 0 = no control
SMILES,"Test A disease control rating [1, 3] [%]",Test C disease control rating ([2]; test suspension 10 ppm) [%],other results
CC(COC(=O)c1cnn(Cc2ccc(-c3noc(C(F)(F)F)n3)cc2)c1)=NO [compound 223],100,91,–
CCOC(=O)c1cc(C(C)C)n(Cc2ccc(-c3noc(C(F)(F)F)n3)cc2)n1 [compound 80],100,68,–
Cc1cc(C(=O)N(C)C)nn1Cc1ccc(-c2noc(C(F)(F)F)n2)cc1 [compound 182],100,100,–
FC(F)(F)c1nc(-c2ccc(Cn3ncc4c(Cl)cc(Br)cc43)cc2)no1 [compound 53],0,9,–
COC(=O)c1ccc2nn(Cc3ccc(-c4noc(C(F)(F)F)n4)cc3)nc2c1 [compound 23],100,100,–
CON(C)C(=O)c1nn(Cc2ccc(-c3noc(C(F)(F)F)n3)cc2)c2ccccc12 [compound 43],100,96,–
COC(=O)c1cccc2c1cnn2Cc1ccc(-c2noc(C(F)(F)F)n2)cc1 [compound 341],100,100,–
CCOC(=O)C1=NOC(Cc2ccc(-c3noc(C(F)(F)F)n3)s2)C1 (stereo not drawn) [compound 366],–,–,Test A disease control rating ([1]; test suspension 50 ppm): 100%; Test C disease control rating ([2]; test suspension 50 ppm): 100%
CCCOC(=O)c1cnn(C(C)c2ccc(-c3noc(C(F)(F)F)n3)s2)c1 (stereo not drawn) [compound 248],100,100,–
CC1(COC(=O)c2cnn(Cc3ccc(-c4noc(C(F)(F)F)n4)cc3)c2)COC1 [compound 269],100,100,–
FC(F)(F)c1nc(-c2ccc(CN3CCc4ccccc4C3)cc2)no1 [compound 351],92,67,–
O=C(NCc1cccnc1)c1cnn(Cc2ccc(-c3noc(C(F)(F)F)n3)cc2)c1 [compound 483],–,–,"Test A disease control rating [1, 4]: 100%; Test C disease control rating [2, 4]: 54%"
COCCCOC(=O)c1cnn(Cc2ccc(-c3noc(C(F)(F)F)n3)cc2)c1 [compound 474],–,–,"Test A disease control rating [1, 4]: 100%; Test C disease control rating [2, 4]: 100%"
COC(=O)c1c2ccccc2nn1Cc1ccc(-c2noc(C(F)(F)F)n2)cc1 [compound 141],100,88,–
N#CC1CCN(Cc2ccc(-c3noc(C(F)(F)F)n3)cc2)C1 (stereo not drawn) [compound 151],–,–,Test A disease control rating ([1]; test suspension 50 ppm): 100%; Test C disease control rating ([2]; test suspension 50 ppm): 98%
CCOC(=O)CNC(=O)c1cnn(Cc2ccc(-c3noc(C(F)(F)F)n3)cc2)c1 [compound 378],100,98,–
CCOC(=O)Nc1cnn(Cc2ccc(-c3noc(C(F)(F)F)n3)cc2)c1 [compound 443],–,–,"Test A disease control rating [1, 4]: 100%; Test C disease control rating [2, 4]: 74%"
FC(F)(F)c1nc(-c2ccc(CCCn3ccc(-c4ccccc4)n3)cc2)no1 [compound 360],100,68,–
O=C(NCc1ccccc1)c1cnn(Cc2ccc(-c3noc(C(F)(F)F)n3)cc2)c1 [compound 484],–,–,"Test A disease control rating [1, 4]: 100%; Test C disease control rating [2, 4]: 100%"
Cc1c2c(Br)cccc2nn1Cc1ccc(-c2noc(C(F)(F)F)n2)cc1 [compound 37],99,86,–
CC(C)NC(=O)c1cnn(Cc2ccc(-c3noc(C(F)(F)F)n3)cc2)c1 [compound 63],100,100,–
O=C(OCCBr)c1cnn(Cc2ccc(-c3noc(C(F)(F)F)n3)cc2)c1 [compound 478],–,–,"Test A disease control rating [1, 5]: 81%; Test C disease control rating [2, 5]: 19%"
CC(C)(C)NC(=O)c1cnn(Cc2ccc(-c3noc(C(F)(F)F)n3)cc2)c1 [compound 78],100,100,–
Cc1cc(C(=O)OCC#N)nn1Cc1ccc(-c2noc(C(F)(F)F)n2)cc1 [compound 185],100,98,–

SMILES,"Test A disease control rating [1, 3] [%]",Test C disease control rating ([2]; test suspension 10 ppm) [%],other results
CCOC(CC(=O)c1cnn(Cc2ccc(-c3noc(C(F)(F)F)n3)cc2)c1)OCC [compound 391],–,–,"Test A disease control rating [1, 4]: 100%; Test C disease control rating [2, 4]: 100%"
Cc1cccc2c1cnn2Cc1ccc(-c2noc(C(F)(F)F)n2)cc1 [compound 100],100,86,–
FC(F)(F)c1nc(-c2ccc(Cn3cc4cc(Br)cnc4n3)cc2)no1 [compound 414],–,–,"Test A disease control rating [1, 4]: 100%; Test C disease control rating [2, 4]: 100%"
CCON=Cc1cnn(Cc2ccc(-c3noc(C(F)(F)F)n3)cc2)c1 [compound 384],–,–,"Test A disease control rating [1, 4]: 100%; Test C disease control rating [2, 4]: 100%"
CC(C)(C)ONC(=O)c1cnn(Cc2ccc(-c3noc(C(F)(F)F)n3)cc2)c1 [compound 273],100,100,–
CC(C#N)OC(=O)c1cnn(Cc2ccc(-c3noc(C(F)(F)F)n3)cc2)c1 (stereo not drawn) [compound 300],94,9,–
"CCOC(=O)c1cc(C)n(Cc2ccc(-c3noc(C(F)(F)F)n3)cc2)n1 [Compound 110, ethyl 5-methyl-1-[[4-[5-(trifluoromethyl)-1,2,4-oxadiazol-3-yl]phenyl]methyl]-1H-pyrazole-3-carboxylate]",–,–,"pest or weed control at 10 µg/mL ([1]; Phakopsora pachyrhizi, 216 h, test suspension 10 ppm, 100 = 100% disease control, 0 = no control, read-out: Test A disease control rating): 100%; pest or weed control at 10 µg/mL ([2]; Puccinia recondita, 168 h, test suspension 10 ppm, read-out: Test C disease control rating): 91%"
C#CCNC(=O)C1=NOC(Cc2ccc(-c3noc(C(F)(F)F)n3)s2)C1 (stereo not drawn) [compound 429],–,–,"Test A disease control rating [1, 5]: 100%; Test C disease control rating [2, 5]: 100%"
Cc1cc(C(=O)OC(=O)C(F)(F)F)nn1Cc1ccc(-c2noc(C(F)(F)F)n2)cc1 [compound 180],97,0,–
CCNC(=O)c1cnn(Cc2ccc(-c3noc(C(F)(F)F)n3)cc2)c1 [compound 67],100,99,–
CCONC(=O)c1cnn(Cc2ccc(-c3noc(C(F)(F)F)n3)cc2)c1 [compound 380],–,–,"Test A disease control rating [1, 4]: 100%; Test C disease control rating [2, 4]: 100%"
COC(=O)c1ccc2cn(Cc3ccc(-c4noc(C(F)(F)F)n4)cc3)nc2c1 [compound 42],100,92,–
FC(F)(F)c1nc(-c2ccc(Cn3ccc(Br)n3)s2)no1 [compound 72],–,–,Test A disease control rating ([1]; test suspension 50 ppm): 99%; Test C disease control rating ([2]; test suspension 50 ppm): 100%
C=CCON=Cc1cnn(Cc2ccc(-c3noc(C(F)(F)F)n3)cc2)c1 [compound 386],–,–,"Test A disease control rating [1, 4]: 100%; Test C disease control rating [2, 4]: 100%"
C=CCOC(=O)c1cc(C)n(Cc2ccc(-c3noc(C(F)(F)F)n3)cc2)n1 [compound 186],100,74,–
N#Cc1cnn(CCc2ccc(-c3noc(C(F)(F)F)n3)cc2)c1 [compound 435],–,–,"Test A disease control rating [1, 4]: 100%; Test C disease control rating [2, 4]: 74%"
COc1ccc(C(O)c2ccc(-c3noc(C(F)(F)F)n3)cc2)cc1 (stereo not drawn) [compound 309],–,–,Test A disease control rating ([1]; test suspension 50 ppm): 100%; Test C disease control rating ([2]; test suspension 50 ppm): 68%
Cc1nn(Cc2ccc(-c3noc(C(F)(F)F)n3)cc2)c2ccc(Br)cc12 [compound 51],99,68,–
Cc1cc(C(F)(F)F)n(Cc2ccc(-c3noc(C(F)(F)F)n3)cc2)n1 [compound 127],0,0,–
CN1CCCC1COC(=O)c1cnn(Cc2ccc(-c3noc(C(F)(F)F)n3)cc2)c1 (stereo not drawn) [compound 340],100,94,–
COC(=O)C1(NC(=O)c2cnn(Cc3ccc(-c4noc(C(F)(F)F)n4)cc3)c2)CC1 [compound 172],100,99,–
N#CC(C#N)NC(=O)c1coc(Cc2ccc(-c3noc(C(F)(F)F)n3)cc2)n1 [compound 203],100,86,–
O=C(COC(=O)c1cnn(Cc2ccc(-c3noc(C(F)(F)F)n3)cc2)c1)c1ccccc1 [compound 244],100,95,–
CCOC(=O)c1nn(Cc2ccc(-c3noc(C(F)(F)F)n3)cc2)c(C(=O)OCC)c1C(=O)OCC [compound 174],85,91,–
